# In PubChem BioAssay (NCI):
#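 1) Cells in 96-well plates. 2) Compound, 48 h, 5 concentrations. 3) Linear interpolation between surrounding doses. 4) Unreached endpoint = highest concentration. At the GI50, growth is halved. TGI marks complete inhibition of growth.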
# How the values were obtained:
# Assay in all cases: NCI tumour cell line growth inhibition, 48 h
# HOP-92 NSCLC = tested on: HOP-92 NSCLC
# OVCAR-8 ovarian = tested on: OVCAR-8 ovarian
# IGROV1 ovarian = tested on: IGROV1 ovarian
# SK-OV-3 ovarian = tested on: SK-OV-3 ovarian
# COLO 205 colon = tested on: COLO 205 colon
# PC-3 prostate = tested on: PC-3 prostate
# RPMI-8226 leukemia = tested on: RPMI-8226 leukemia
# K-562 leukemia = tested on: K-562 leukemia
# OVCAR-4 ovarian = tested on: OVCAR-4 ovarian
# BT-549 breast = tested on: BT-549 breast
# SF-539 CNS = tested on: SF-539 CNS
# MOLT-4 leukemia = tested on: MOLT-4 leukemia
# NCI-H522 lung = tested on: NCI-H522 lung
# ACHN renal = tested on: ACHN renal
# HS 578T breast = tested on: HS 578T breast
# NCI-H460 lung = tested on: NCI-H460 lung
# TK-10 renal = tested on: TK-10 renal
# UACC-257 melanoma = tested on: UACC-257 melanoma
# OVCAR-3 ovarian = tested on: OVCAR-3 ovarian
# SN12C renal = tested on: SN12C renal
# SW-620 colon = tested on: SW-620 colon
# A549 NSCLC = tested on: A549 NSCLC
# SNB-75 CNS = tested on: SNB-75 CNS
# SK-MEL-28 melanoma = tested on: SK-MEL-28 melanoma
# HOP-62 NSCLC = tested on: HOP-62 NSCLC
# UO-31 renal = tested on: UO-31 renal
# SK-MEL-2 melanoma = tested on: SK-MEL-2 melanoma
# MCF7 breast = tested on: MCF7 breast
# UACC-62 melanoma = tested on: UACC-62 melanoma
# T-47D breast = tested on: T-47D breast
# U251 CNS = tested on: U251 CNS
# HCT-15 colon = tested on: HCT-15 colon
# RXF 393 renal = tested on: RXF 393 renal
# MDA-MB-435 = tested on: MDA-MB-435
# SF-295 CNS = tested on: SF-295 CNS
# SK-MEL-5 melanoma = tested on: SK-MEL-5 melanoma
# EKVX NSCLC = tested on: EKVX NSCLC
# A498 renal = tested on: A498 renal
# KM12 colon = tested on: KM12 colon
# NCI-H226 lung = tested on: NCI-H226 lung
# M14 melanoma = tested on: M14 melanoma
# HL-60(TB) leukemia = tested on: HL-60(TB) leukemia
# CAKI-1 renal = tested on: CAKI-1 renal
# CCRF-CEM leukemia = tested on: CCRF-CEM leukemia
# SNB-19 CNS = tested on: SNB-19 CNS
# DU-145 prostate = tested on: DU-145 prostate
# SF-268 CNS = tested on: SF-268 CNS
# LOX IMVI melanoma = tested on: LOX IMVI melanoma
# HCT-116 colon = tested on: HCT-116 colon
# 786-0 renal = tested on: 786-0 renal
# HT29 colon = tested on: HT29 colon
# MDA-MB-231 breast = tested on: MDA-MB-231 breast
structure (smiles),measurement,setting,value
O=C(NC1CCCCC1)NS(=O)(=O)c1ccc(-n2nc3c(c2-c2ccc(Cl)cc2)Cc2ccccc2-3)cc1,GI50,HOP-92 NSCLC,6.45 µM
same,TGI,HOP-92 NSCLC,25 µM
same,GI50,OVCAR-8 ovarian,11.9 µM
same,TGI,OVCAR-8 ovarian,49.6 µM
same,GI50,IGROV1 ovarian,18.6 µM
same,TGI,IGROV1 ovarian,35.8 µM
same,GI50,SK-OV-3 ovarian,31.6 µM
same,TGI,SK-OV-3 ovarian,> 100 µM
same,GI50,COLO 205 colon,36.2 µM
same,TGI,COLO 205 colon,> 100 µM
same,GI50,PC-3 prostate,6.28 µM
same,TGI,PC-3 prostate,24.4 µM
same,GI50,RPMI-8226 leukemia,2.11 µM
same,TGI,RPMI-8226 leukemia,5.43 µM
same,GI50,K-562 leukemia,2.15 µM
same,TGI,K-562 leukemia,5.89 µM
same,GI50,OVCAR-4 ovarian,28.8 µM
same,TGI,OVCAR-4 ovarian,> 100 µM
same,GI50,BT-549 breast,3.52 µM
same,TGI,BT-549 breast,17.3 µM
same,GI50,SF-539 CNS,11.2 µM
same,TGI,SF-539 CNS,27.7 µM
same,GI50,MOLT-4 leukemia,2.77 µM
same,TGI,MOLT-4 leukemia,7.28 µM
same,GI50,NCI-H522 lung,18.3 µM
same,TGI,NCI-H522 lung,52.5 µM
same,GI50,ACHN renal,7.93 µM
same,TGI,ACHN renal,21 µM
same,GI50,HS 578T breast,5.03 µM
same,TGI,HS 578T breast,39.2 µM
same,GI50,NCI-H460 lung,19.8 µM
same,TGI,NCI-H460 lung,46 µM
same,GI50,TK-10 renal,13.3 µM
same,TGI,TK-10 renal,26.9 µM
same,GI50,UACC-257 melanoma,18.4 µM
same,TGI,UACC-257 melanoma,39.8 µM
same,GI50,OVCAR-3 ovarian,13.7 µM
same,TGI,OVCAR-3 ovarian,28.8 µM
same,GI50,SN12C renal,7.54 µM
same,TGI,SN12C renal,30.3 µM
same,GI50,SW-620 colon,2.46 µM
same,TGI,SW-620 colon,> 100 µM
same,GI50,A549 NSCLC,16.6 µM
same,TGI,A549 NSCLC,34.6 µM
same,GI50,SNB-75 CNS,27.6 µM
same,TGI,SNB-75 CNS,> 100 µM
same,GI50,SK-MEL-28 melanoma,21.9 µM
same,TGI,SK-MEL-28 melanoma,50.5 µM
same,GI50,HOP-62 NSCLC,35.8 µM
same,TGI,HOP-62 NSCLC,> 100 µM
same,GI50,UO-31 renal,3.64 µM
same,TGI,UO-31 renal,8.67 µM
same,GI50,SK-MEL-2 melanoma,19.4 µM
same,TGI,SK-MEL-2 melanoma,44.2 µM
same,GI50,MCF7 breast,15.3 µM
same,TGI,MCF7 breast,45.7 µM
same,GI50,UACC-62 melanoma,10.9 µM
same,TGI,UACC-62 melanoma,24 µM
same,GI50,T-47D breast,49.8 µM
same,TGI,T-47D breast,> 100 µM
same,GI50,U251 CNS,11.7 µM
same,TGI,U251 CNS,29.7 µM
same,GI50,HCT-15 colon,7.79 µM
same,TGI,HCT-15 colon,31.2 µM
same,GI50,RXF 393 renal,20 µM
same,TGI,RXF 393 renal,75.2 µM
same,GI50,MDA-MB-435,8.27 µM
same,TGI,MDA-MB-435,28.1 µM
same,GI50,SF-295 CNS,11.3 µM
same,TGI,SF-295 CNS,28.9 µM
same,GI50,SK-MEL-5 melanoma,12.1 µM
same,TGI,SK-MEL-5 melanoma,40.2 µM
same,GI50,EKVX NSCLC,14.2 µM
same,TGI,EKVX NSCLC,37.7 µM
same,GI50,A498 renal,18.5 µM
same,TGI,A498 renal,40.2 µM
same,GI50,KM12 colon,10.6 µM
same,TGI,KM12 colon,30.4 µM
same,GI50,NCI-H226 lung,6.15 µM
same,TGI,NCI-H226 lung,54.9 µM
same,GI50,M14 melanoma,13.7 µM
same,TGI,M14 melanoma,> 100 µM
same,GI50,HL-60(TB) leukemia,4.28 µM
same,TGI,HL-60(TB) leukemia,14.6 µM
same,GI50,CAKI-1 renal,4.52 µM
same,TGI,CAKI-1 renal,19.3 µM
same,GI50,CCRF-CEM leukemia,1.13 µM
same,TGI,CCRF-CEM leukemia,4.36 µM
same,GI50,SNB-19 CNS,43.7 µM
same,TGI,SNB-19 CNS,> 100 µM
same,GI50,DU-145 prostate,6.39 µM
same,TGI,DU-145 prostate,20.3 µM
same,GI50,SF-268 CNS,20.1 µM
same,TGI,SF-268 CNS,45.6 µM
same,GI50,LOX IMVI melanoma,1.94 µM
same,TGI,LOX IMVI melanoma,4.12 µM
same,GI50,HCT-116 colon,4.18 µM
same,TGI,HCT-116 colon,> 100 µM
same,GI50,786-0 renal,5.07 µM
same,TGI,786-0 renal,> 100 µM
same,GI50,HT29 colon,34.8 µM
same,TGI,HT29 colon,> 100 µM
same,GI50,MDA-MB-231 breast,6.43 µM
same,TGI,MDA-MB-231 breast,23 µM
